These results are taken from ChEMBL document CHEMBL5608200, “Design, synthesis, and evaluation of antitumor activity of 2-arylmethoxy-4-(2-fluoromethyl-biphenyl-3-ylmethoxy) benzylamine derivatives as PD-1/PD-l1 inhibitors” (Eur J Med Chem, 2024).

Activity calls are given as the source filed them. The rule behind the calls is not given here.

Data set [1] is described as follows: Toxicity in PD-1/PD-L1 humanized C57BL/6 mouse implanted with mouse MC38 cells expressing hPD-L1 assessed as hepatotoxicity at 50 mg/kg, IG QD administered for 15 days. The class given is organism-based, MC-38. Particulars: in vivo, po, 360 h, time 15 day.
Data set [2] relates to MDA-MB-231. Briefly: Induction of T-cell mediated apoptosis in human MDA-MB-231 cells cocultured with PMA-stimulated Jurkat T cells assessed as mortality rate at 4 uM incubated for 48 hrs by CCK-8 assay. The class given is functional. (Tetrazolium assays rely on reduction of a dye to a coloured formazan, in cell work by metabolically active cells.)
Data set [3] relates to MC-38. The data set can be described thus: Antitumor activity against mouse MC38 cells expressing hPD-L1 implanted in PD-1/PD-L1 humanized C57BL/6 mouse assessed as upregulation of CXCR3 mRNA expression at 50 mg/kg, IG QD administered for 15 days by RT-PCR analysis. Particulars: time 15.0 day. The class given is functional, organism-based.
In data set [4] the test system is MDA-MB-231. Briefly: Induction of T-cell mediated apoptosis in human MDA-MB-231 cells cocultured with PMA-stimulated Jurkat T cells assessed as mortality rate at 8 uM incubated for 48 hrs by CCK-8 assay. The class given is functional.
The nature of data set [5]: Toxicity in PD-1/PD-L1 humanized C57BL/6 mouse implanted with mouse MC38 cells expressing hPD-L1 assessed as change in liver morphology at 50 mg/kg, IG QD administered for 15 days by H and E staining based inverted fluorescent microscopic assay. The class given is organism-based, MC-38. Particulars: in vivo, po, 360 h, time 15 day.
Data set [6] can be described thus: Toxicity in PD-1/PD-L1 humanized C57BL/6 mouse implanted with mouse MC38 cells expressing hPD-L1 assessed as weight loss at 50 mg/kg, IG QD administered for 15 days. The class given is organism-based, MC-38. Particulars: in vivo, po, 360 h, time 15 day.
The nature of data set [7]: Toxicity in PD-1/PD-L1 humanized C57BL/6 mouse implanted with mouse MC38 cells expressing hPD-L1 assessed as change in spleen morphology at 50 mg/kg, IG QD administered for 15 days by H and E staining based inverted fluorescent microscopic assay. In kind it is organism-based, MC-38. Particulars: in vivo, po, 360 h, time 15 day.
Data set [8] deals with MC-38. The data set can be described thus: Antitumor activity against mouse MC38 cells expressing hPD-L1 implanted in PD-1/PD-L1 humanized C57BL/6 mouse assessed as increase in ratio of CD3+/CD8+ to CD3+/CD4+ cells at 50 mg/kg, IG QD administered for 15 days by flow cytometry analysis. In kind it is functional, organism-based. Particulars: time 15.0 day. Background: Flow cytometry measures light scatter and fluorescence of single cells or particles in a stream.

Another data set concerns A549. Briefly: Induction of T-cell mediated apoptosis in human A549 cells cocultured with PMA-stimulated Jurkat T cells assessed as mortality rate at 1 to 32 uM incubated for 48 hrs by CCK-8 assay. In kind it is functional, cell-based. Particulars: dose 1-32 µM.
In the next data set the test system is Jurkat. The data set can be described thus: Cytotoxicity against human Jurkat T cells at 1 to 32 uM incubated for 48 hrs by CCK-8 assay. Particulars: dose 1-32 µM. In kind it is functional, cell-based.
Data set [9] is described as follows: AUC(0 to t) in Sprague-Dawley rat at 10 mg/kg, iv measured upto 48 hrs by LC-MS/MS analysis. Particulars: in vivo. The class given is ADME, organism-based.
Data set [10] can be described thus: Tmax in Sprague-Dawley rat at 50 mg/kg, IG measured upto 48 hrs by LC-MS/MS analysis. The class given is ADME, organism-based. Particulars: in vivo, po.
Data set [11] in a line: Cytotoxicity against human PBMCs at 1 to 4 uM by CCK-8 assay. The class given is toxicity, cell-based. Particulars: pbmc, dose 1-4 µM.
The nature of data set [12]: AUC(0 to infinity) in Sprague-Dawley rat at 10 mg/kg, iv measured upto 48 hrs by LC-MS/MS analysis. The class given is ADME, organism-based. Particulars: in vivo.
Data set [13] in a line: Tmax in Sprague-Dawley rat at 10 mg/kg, iv measured upto 48 hrs by LC-MS/MS analysis. Particulars: in vivo. The class given is ADME, organism-based.

In general, AUC(0-t) refers to exposure summed from dosing to a finite time, without extrapolation to infinity. For orientation: Tmax means the time from dosing to the highest level. As usually defined, the AUC(0-inf) is the area under the concentration-time curve extrapolated to infinity. On to `N#Cc1cncc(COc2cc(OCc3cccc(-c4ccc5c(c4)OCCO5)c3C(F)F)ccc2CNCCO)c1`, for which the Activity entry in data set [1] is recorded as “Non-Toxic”; in the data set on MDA-MB-231 [2], 40.6%; in the data set with MDA-MB-231 [4] it was 45.9%; in [5], “Non-Toxic”; in data set [6], “Non-Toxic”; in data set [7] it was “Non-Toxic”. The Activity entry in data set [11] is reported as “Non-Toxic”. The result with MC-38 [3] and in the data set on MC-38 [8] was Active. Also, the outcome in the data set with A549 and in the data set on Jurkat was inactive. The AUC(0-t) at 48 h in data set [9] was determined as 12800 ng·h/mL. Besides, the time of peak concentration (Tmax) worked out at 2.38 h in data set [10] and 7.8 min in [13]. In addition, the AUC(0-inf) in data set [12] was 13900 ng·h/mL.
